The values below come from US20200002303A1, “C-GLYCOSIDE COMPOUNDS USEFUL FOR TREATING DISEASE” (Fimbrion Therapeutics, Inc., priority 2016, published 2020).

As usually defined, the IC50 is the concentration at which inhibition is half-maximal.

One assay concerns the target T1, FimH (Escherichia coli, UniProt Q1R2J4).
T1 construct: performed with UTI89 bacteria and guinea pig red blood cells; endogenous in cells; host or cells: UTI89 bacteria (whole cells, type 1 piliated)
It counts as cell-based. Conditions: concentration reducing bacterial agglutination of guinea pig red blood cells by greater than 90%; UTI89 bacteria. How it is done:
The hemagglutination inhibition (HAI) assay was performed with UTI89 bacteria and guinea pig red blood cells, as previously described (S. J. Hultgren, W. R. Schwan, A. J. Schaeffer, J. L. Duncan Infect. Immun. 1986, 54, 613-620).

In another assay the test system is UTI89 bacteria. As to the kind of experiment: Biofilm inhibition assay with UTI89 bacteria. It counts as cell-based. Conditions: read-out: Biofilm prevention IC50. As to the method:
The biofilm inhibition assay was performed with UTI89 bacteria as previously described (L. Cegelski, J. S. Pinkner, N. D. Hammer, C. K. Cusumano, C. S. Hung, E. Chorell, V. Aberg, J. N. Walker, P. C. Seed, F. Almqvist, M. R. Chapman, S. J. Hultgren Nature Chem. Biol. 2009, 5, 913-919). Compounds not listed were not tested.

Another assay deals with T2, FimHL (Escherichia coli, UniProt P08191).
T2 construct: Purified FimHL (10 μM) in the absence or presence of mannoside (100 μM)
As to the kind of experiment: Differential scanning fluorimetry (DSF) with purified FimHL. It counts as binding. The note with it: FimHL 10 μM with mannoside 100 μM, SYPRO Orange, HEPES pH 7.5; Tm from Boltzmann fit. How it is done: Purified FimHL (10 μM) in the absence or presence of mannoside (100 μM) was combined with 5×SYPRO Orange in a 50 μl reaction mixture buffered in 20 mM HEPES pH 7.5, 150 mM NaCl (HBS) and 0.4% DMSO. Binding equilibria were established by allowing the reaction mixtures to incubate at 23° C. for 30 min. These reaction mixtures were then placed in 96-well clear-bottom PCR plates and subjected to a melt curve from 20-90° C. in 0.5° C. increments of 15 seconds, each followed by a fluorescence read of the “HEX” channel in a Bio-Rad CFX96 thermocycler (Bio-Rad, Hercules, Calif.). Melt curves were fitted to the Boltzmann equation (y=A2+(A1−A2)/(1+exp((x−xo)/dx)) where xo is the Tm) to determine the melting temperature (Tm) using GraphPad Prism 6 (San Diego Calif.). Melting temperatures are represented as the mean and standard error of two biological replicates, each of which consisted of three technical replicates. Compounds not listed were not tested.
Background: DSF heats the sample and reads unfolding from a dye or from intrinsic fluorescence.

For the molecule `Cc1cc(-c2ccc3ccnc(N)c3c2)ccc1[C@@H](O)[C@H]1O[C@H](CO)[C@@H](O)[C@H](O)[C@@H]1O` [Example 3, (2R,3S,4S,5S,6R)-2-((R)-(4-(1-aminoisoquinolin-7-yl)-2-methylphenyl)(hydroxy)methyl)-6-(hydroxymethyl)tetrahydro-2H-pyran-3,4,5-triol], on FimH, the “HAI titer EC>90” value was 0.006 µM. For the same molecule, the IC50 in the assay on UTI89 bacteria came to 40 nM. The “DSF Melting Temp” value at FimHL was found to be 77.7 °C.
`Cc1cc(-c2ccc3c(c2)C(=O)NCC3)ccc1[C@@H](O)[C@H]1O[C@H](CO)[C@@H](O)[C@H](O)[C@@H]1O` [Example 4, 7-(4-((R)-hydroxy((2R,3S,4S,5S,6R)-3,4,5-trihydroxy-6-(hydroxymethyl)tetrahydro-2H-pyran-2-yl)methyl)-3-methylphenyl)-3,4-dihydroisoquinolin-1 (2H)-one]: the “HAI titer EC>90” value on FimH turned out to be 0.008 µM. The half-inhibitory concentration (IC50) in the assay with UTI89 bacteria was found to be 40 nM. Further, the “DSF Melting Temp” value on FimHL came to 76.06 °C.
For the molecule `Cc1cc(-c2cccc3cnccc23)ccc1[C@@H](O)[C@H]1O[C@H](CO)[C@@H](O)[C@H](O)[C@@H]1O` [Example 1, (2R,3S,4S,5S,6R)-2-((R)-hydroxy(4-(isoquinolin-5-yl)-2-methylphenyl)methyl)-6-(hydroxymethyl)tetrahydro-2H-pyran-3,4,5-triol], on FimH, the “HAI titer EC>90” value came to 0.125 µM. Moreover, the IC50 with UTI89 bacteria is 600 nM. Also, the “DSF Melting Temp” value on FimHL was determined as 74.6 °C.
